Data: patent publication US20210221784A1, “COMPOUNDS AND COMPOSITIONS FOR THE TREATMENT OF PAIN” (Université de Strasbourg, priority 2018, published 2021)

How the values were obtained:
hNPFFR1 = biological target: T1, hNPFFR1 (Homo sapiens, UniProt Q9GZQ6); experiment: Radioligand binding competition, membranes from CHO cells expressing hNPFFR1; conditions: 0.015 nM [D-Tyr1[125I], N-MePhe3]-NPFF, 1 hr at 25° C.; for Ki: read-out: NPFF1-R Ki
T1 construct: expressed in transfected cells; membranes
Experimental: (§1) Competition experiments with membranes from CHO cells stably expressing hNPFFR1 and hNPFFR2 were performed essentially as described in Elhabazi, K., et al. Neuropharmacology, 2013. 75C, 164-171., Briefly, hNPFFR1 or hNPFFR2 membranes (5 to 10 μg of proteins) were incubated (1 hr at 25° C.; 0.25 mL total volume) with 0.015 nM [D-Tyr1[125I], N-MePhe3]-NPFF (Hartmann Analytic GmbH) in 50 mM HEPES (pH 7.4), 1 mM CaCl2, 1 mM MgCl2 and 0.1% bovine serum albumin. Non-specific binding was determined in the presence of 10 μM RFRP-3. Incubation was terminated by rapid filtration through a 96-well GF/B unifilter apparatus (Perkin Elmer Life and Analytical Sciences, Courtaboeuf, France). Unifilters were washed five times with binding buffer, then dried for 1 h at 65° C. After addition of 40 μL scintillation cocktail (Microscint-O, Perkin Elmer) per well, bound radioactivity was determined on a TopCount scintillation counter (Perkin Elmer).

hNPFFR2 = biological target: T2, hNPFFR2 (Homo sapiens, UniProt Q9Y5X5); experiment: Radioligand binding competition, membranes from CHO cells expressing hNPFFR2; conditions: 0.015 nM [D-Tyr1[125I], N-MePhe3]-NPFF, 1 hr at 25° C.; for Ki: read-out: NPFF2-R Ki
T2 construct: expressed in transfected cells; membranes
Experimental: as §1

T2 sequence (Q9Y5X5 whole entry): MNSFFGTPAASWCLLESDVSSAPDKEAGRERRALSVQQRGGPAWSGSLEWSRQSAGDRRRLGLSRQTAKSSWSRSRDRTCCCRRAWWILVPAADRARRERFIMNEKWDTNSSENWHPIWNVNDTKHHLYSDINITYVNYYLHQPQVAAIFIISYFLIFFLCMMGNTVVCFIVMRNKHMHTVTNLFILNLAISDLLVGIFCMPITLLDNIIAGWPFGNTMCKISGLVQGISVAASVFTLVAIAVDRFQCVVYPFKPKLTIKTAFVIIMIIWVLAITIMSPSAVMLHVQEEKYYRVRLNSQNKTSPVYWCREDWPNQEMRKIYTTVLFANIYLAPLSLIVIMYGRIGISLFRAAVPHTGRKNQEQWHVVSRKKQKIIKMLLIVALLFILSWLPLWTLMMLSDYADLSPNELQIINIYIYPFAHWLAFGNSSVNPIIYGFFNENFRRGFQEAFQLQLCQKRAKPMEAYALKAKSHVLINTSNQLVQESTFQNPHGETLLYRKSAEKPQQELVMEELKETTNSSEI
T1 sequence (Q9GZQ6 whole entry): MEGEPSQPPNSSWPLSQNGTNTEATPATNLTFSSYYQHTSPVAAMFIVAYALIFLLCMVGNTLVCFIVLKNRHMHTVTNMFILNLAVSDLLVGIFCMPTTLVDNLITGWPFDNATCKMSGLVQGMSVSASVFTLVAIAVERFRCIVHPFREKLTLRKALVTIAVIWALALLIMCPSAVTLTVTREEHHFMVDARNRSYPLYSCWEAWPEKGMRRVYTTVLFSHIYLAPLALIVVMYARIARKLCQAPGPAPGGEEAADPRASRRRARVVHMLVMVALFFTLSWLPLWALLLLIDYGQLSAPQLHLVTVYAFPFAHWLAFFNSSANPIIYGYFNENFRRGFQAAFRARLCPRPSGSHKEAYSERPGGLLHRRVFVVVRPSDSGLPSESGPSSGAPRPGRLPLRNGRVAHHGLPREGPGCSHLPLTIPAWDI

Row | Molecule | Ki (hNPFFR1) [µM] | Ki (hNPFFR2) [µM] | NPFF1-R Ki (nM) (hNPFFR1) | NPFF2-R Ki (nM) (hNPFFR2)
1 | COc1cc(N)nc(N)c1-c1cccc(Cl)c1Cl [Compound 8a, 3-(2,3-dichlorophenyl)-4-methoxypyridine-2,6-diamine] | 4.08 | > 50 |  | 
2 | Nc1ccc(-c2cc3ccccc3o2)c(N)n1 [Compound 3c, 3-(benzofuran-2-yl) pyridine-2,6-diamine] | 0.524 | 34 |  | 
3 | Nc1ccc(-c2cccc(Cl)c2Cl)c(NCCN2CCCCC2)n1 [Compound 5h, 3-(2,3-dichlorophenyl)-N2-(2-(piperidin-1-yl)ethyl)pyridine-2,6-diamine] | 1.92 | 3.2 |  | 
4 | COc1nc(N)ccc1-c1cccc(Cl)c1Cl [Compound 7a, 5-(2,3-dichlorophenyl)-6-methoxypyridin-2-amine] |  |  | ns | ns
5 | CCc1cc(-c2cccc(Cl)c2Cl)c(N)nc1N [Compound 9b, 3-(2,3-dichlorophenyl)-5-ethylpyridine-2,6-diamine] | 1.09 | 3.3 |  | 
6 | Nc1ccc(-c2cccc(Cl)c2Cl)c(N2CCCCC2)n1 [Compound 5i, 5-(2,3-dichlorophenyl)-6-(piperidin-1-yl)pyridin-2-amine] | 0.44 | 6.3 |  | 
7 | CCCCNc1nc(N)ccc1-c1cccc(Cl)c1Cl [Compound 5c, N2-butyl-3-(2,3-dichlorophenyl)pyridine-2,6-diamine] | 0.416 | 6.9 |  | 
8 | Nc1nc(N)c(-c2cccc(Cl)c2Cl)cc1F [Compound 9a, 3-(2,3-dichlorophenyl)-5-fluoropyridine-2,6-diamine] | 3.24 | 1.8 |  | 
9 | 4′-methyl-[3,4′-bipyridine]-2,6-diamine [Compound 3f] | 0.515 |  |  | ns
10 | Cc1c(Cl)cccc1-c1ccc(N)nc1N [Compound 1q, 3-(3-chloro-2-methylphenyl) pyridine-2,6-diamine] | 0.112 | 7.3 |  | 
11 | Nc1ccc(-c2ccoc2)c(N)n1 [Compound 3b, 3-(furan-3-yl)pyridine-2,6-diamine] |  |  | n.s. | n.s.
12 | 3-(2-methoxyethoxyphenyl)pyridine-2,6-diamine [Compound 2h] | 0.026 | 35.7 |  | 
13 | Nc1ccc(-c2c(Cl)cccc2Cl)c(N)n1 [Compound 1m, 3-(2,6-dichlorophenyl) pyridine-2,6-diamine] | 0.094 | > 10 |  | 
14 | Nc1ccc(-c2ccco2)c(N)n1 [Compound 3a, 3-(furan-2-yl)pyridine-2,6-diamine] | 5.08 | 106 |  | 
15 | Nc1ccc(CCc2ccccc2)c(N)n1 [Compound 11a, 3-phenethylpyridine-2,6-diamine] | 0.189 | 5.4 |  | 
16 | 3-(2-(piperidin-1-yl)ethoxy)pyridine-2,6-diamine [Compound 2j] | 0.033 | 0.45 |  | 
17 | 5-(2-methoxyphenyl)-6-(trifluoromethoxy)pyridin-2-amine [Compound 6f] | > 5 | > 10 |  | 
18 | Nc1ccc(-c2cccc(Cl)c2Cl)c(NCCc2ccccc2)n1 [Compound 5f, 3-(2,3-dichlorophenyl)-N2-phenethylpyridine-2,6-diamine] | 0.424 | 0.8 |  | 
19 | COCCNc1nc(N)ccc1-c1cccc(Cl)c1Cl [Compound 5g, 3-(2,3-dichlorophenyl)-N2-(2-methoxyethyl)pyridine-2,6-diamine] | 0.481 |  |  | ns
